# Where “and” joins values, the source holds several entries; their conditions need not be identical. Equal values may be shown once.
# Assays:
# RIPK2 = RIPK2 (Homo sapiens, UniProt O43353); assay: RIPK2 fluorescence polarisation binding assay
# Rat intravenous PK = format: in vivo
# Procedure: Rats (n = 3) received a single intravenous (IV) bolus administration (1 mg/kg, 4 mL/kg, n = 3 rats) formulated as a solution in saline with the pH adjusted to 4.0.
# Aliquots of diluted whole blood (50:50) were analysed using quantitative high-performance liquid chromatography with tandem mass spectrometric detection (LC/MS/MS) following protein precipitation. […] PK parameters were generated following non-compartmental analysis (Phoenix® WinNonlin® (Certara, L.P., St. Louis, MO)) of the resulting concentration-time data.
# Hepatocyte CLint, rat = format: in vitro ADME; conditions: rat liver hepatocytes
# Procedure: Metabolic stability was performed at Cyprotex (UK). Pooled liver microsomes / cryopreserved pooled hepatocytes were purchased from a commercial supplier (BD Biosciences or Corning/InVitro Technologies).
# The final incubation volume was 500 µL. An appropriate vehicle control was used. Each compound was incubated for 0, 5, 10, 20, 40, and 60 min. The control (vehicle) was incubated for 60 min.
# All incubations were terminated by transferring 50 μL of incubate to 100 μL of acetonitrile containing internal standard at the appropriate time points. The termination plates were centrifuged at 2500 rpm for 20–30min at 4 °C to precipitate the protein. Following protein precipitation, samples were analysed using quantitative LC-MS/MS.
# [1] = test system: L18-MDP-stimulated TNFα release; assay: L18-MDP-stimulated TNFα release in rat whole blood; format: cell-based; conditions: inhibition of L18-MDP-stimulated TNFα release
# Procedure: Before treatment with compound or vehicle, THP1 cells, human and rat PBMCs were counted using Vi-Cell cell counter (Invitrogen) and adjusted to a final cell density of […] using complete growth medium. Cells or whole blood were treated with vehicle (0.1% DMSO) or fixed concentrations of compound up to 1 μM in half log unit increments and incubated for the time period indicated in the figure.
# Where the assessment of cytokines was performed, L18-MDP was added to the cell culture media (1 μg/ml) or to the rat blood samples (100 ng/ml) and samples were incubated for up to 4 h. […]
# Cytokine measurement assay: Cytokine levels were measured in rat plasma or rat PBMCs cell culture supernatants using rat V-Plex TNFα, in human plasma or human PBMCs cell culture supernatants with either TNFα tissue culture or 7-plex kit. Rat serum and tissues samples from the in vivo L18-MDP acute inflammation model were analyzed using the rat TNFα, Il-6 and IL-8 U-Plex kits. […] Levels of cytokines spontaneously released from human colon biopsies cell culture supernatants were measured using Human IL-1 beta/IL-1F2 DuoSet ELISA (Bio-techne), Human IL-6 ELISA (Immunotools) and Human TNF-alpha DuoSet ELISA (Bio-techne). […] The MSD plates were analyzed using the MSD sector imager 6000 plate reader and cytokines concentration (pg/ml) was obtained by using the MSD DISCOVERY WORKBENCH software version 4.0.12.1 […]
# XIAP = biological target: T1, XIAP (Homo sapiens, UniProt P98170); assay: XIAP levels in human PBMCs, 24 h, capillary immunoassay; format: cell-based; conditions: up to 1uM
# T1 construct: endogenous in cells; host or cells: primary human PBMCs
# Procedure: Where the assessment of cytokines was performed, L18-MDP was added to the cell culture media (1 μg/ml) or to the rat blood samples (100 ng/ml) and samples were incubated for up to 4 h. For human blood, 250 ng/ml MDP (Invivogen) was added following compound treatment and the samples were further incubated for 5 h. Samples were them spun down at 1000 g and the cell culture supernatant, plasma or serum were collected for cytokines assessment, while cell pellets were used for RIPK2 and/or cIAP1, cIAP2, and XIAP levels analysis via immunoblotting.
# Simple Western immunoassay: Cell lysates were mixed with 5× concentrated master mix (Protein Simple) and denatured at 95 °C on a heat block for 5 min together with the provided ladder (Protein Simple). Antibodies were diluted in the provided buffer as following: anti-RIPK2 (1:10 or 1:50), anti-cIAP1(1:10), anti-cIAP2 (1:10), anti-XIAP (1:10), mouse anti-β-actin (Abcam - 1:1000), rabbit anti-β-actin (Abcam - 1:50) and anti-vinculin (1:100). […] All samples were analyzed using the associated Compass software 3.1.7. […]
# Cell viability was assessed by using Cell Titer
# Kit (Promega) according to the manufacturer’s instructions. Samples were analysed using […]
# [2] = test system: L18-MDP-induced cytokine release; assay: In vivo L18-MDP acute inflammation model, distal colon cytokines; set-up: species or system rat; key to cytokine level (fig 6g) / cytokine level (fig 6h) / cytokine level (fig 6i): cytokine concentration in pg/ml (MSD U-Plex); conditions: for cytokine level (fig 6g) / cytokine level (fig 6i) / cytokine level (fig 6h): distal colon, individual rats, beside L18-MDP control
# Procedure: Cytokine levels were determined in serum generated from the terminal blood samples and in tissue lysates as detailed below.
# Cytokine measurement assay: Cytokine levels were measured in rat plasma or rat PBMCs cell culture supernatants using rat V-Plex TNFα, in human plasma or human PBMCs cell culture supernatants with either TNFα tissue culture or 7-plex kit. Rat serum and tissues samples from the in vivo L18-MDP acute inflammation model were analyzed using the rat TNFα, Il-6 and IL-8 U-Plex kits. All kits provided by Meso Scale Discovery (MSD). Levels of cytokines spontaneously released from human colon biopsies cell culture supernatants were measured using Human IL-1 beta/IL-1F2 DuoSet ELISA (Bio-techne), Human IL-6 ELISA (Immunotools) and Human TNF-alpha DuoSet ELISA (Bio-techne). All samples were processed accordingly to the manufacturer’s instructions. The MSD plates were analyzed using the MSD sector imager 6000 plate reader and cytokines concentration (pg/ml) was obtained by using the MSD DISCOVERY WORKBENCH software version 4.0.12.1
# T1 sequence (P98170 whole entry): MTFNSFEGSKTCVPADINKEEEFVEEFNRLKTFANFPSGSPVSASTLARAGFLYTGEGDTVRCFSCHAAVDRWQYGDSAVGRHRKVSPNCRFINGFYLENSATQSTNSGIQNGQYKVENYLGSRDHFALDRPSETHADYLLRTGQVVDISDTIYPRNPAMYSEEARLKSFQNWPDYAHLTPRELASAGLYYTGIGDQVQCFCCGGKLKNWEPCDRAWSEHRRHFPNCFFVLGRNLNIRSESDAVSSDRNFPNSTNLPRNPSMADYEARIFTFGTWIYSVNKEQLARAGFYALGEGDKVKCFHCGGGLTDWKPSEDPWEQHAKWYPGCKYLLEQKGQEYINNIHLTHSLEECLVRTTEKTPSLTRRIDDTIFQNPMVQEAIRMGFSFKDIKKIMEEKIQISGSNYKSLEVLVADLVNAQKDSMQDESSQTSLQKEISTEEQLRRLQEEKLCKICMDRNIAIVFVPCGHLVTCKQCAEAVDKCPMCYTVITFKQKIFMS
# Chain of RIPK2 (O43353 whole entry): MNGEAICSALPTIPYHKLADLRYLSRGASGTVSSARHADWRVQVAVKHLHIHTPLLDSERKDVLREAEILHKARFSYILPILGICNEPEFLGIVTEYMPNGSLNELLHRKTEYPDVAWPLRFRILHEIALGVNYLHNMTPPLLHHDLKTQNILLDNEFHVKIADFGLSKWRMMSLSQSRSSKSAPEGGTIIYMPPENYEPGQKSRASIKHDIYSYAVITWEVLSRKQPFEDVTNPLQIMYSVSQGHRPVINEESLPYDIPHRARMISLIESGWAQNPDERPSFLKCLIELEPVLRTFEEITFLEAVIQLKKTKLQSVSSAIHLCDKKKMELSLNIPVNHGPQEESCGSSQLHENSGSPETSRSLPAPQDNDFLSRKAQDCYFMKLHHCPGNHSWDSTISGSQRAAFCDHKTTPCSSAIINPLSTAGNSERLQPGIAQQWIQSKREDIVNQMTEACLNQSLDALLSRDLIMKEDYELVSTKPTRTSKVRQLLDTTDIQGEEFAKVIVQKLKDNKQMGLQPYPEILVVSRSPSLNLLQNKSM
compound,measurement,setting,value
CN[C@@H](C)C(=O)N[C@H](C(=O)N1CCC[C@H]1c1nc(C(=O)c2ccc(F)cc2)cs1)C1CCN(C(=O)c2cnc(N3CCN(CCOc4cc5ncnc(Nc6n[nH]c(C)c6C)c5cc4S(=O)(=O)C(C)(C)C)CC3)nc2)CC1 [PROTAC 4],RIPK2 FP pIC50 ± SEM (n),RIPK2,6.6 ± 0.02 (8)
same,"mean intravenous clearance in rats, in words","Rat intravenous PK; in vivo, iv",less than a quarter of liver blood flow
same,clearance,"Rat intravenous PK; male, Sprague Dawley (PROTAC 4), Han Wistar (PROTAC 6), whole blood, IV bolus (4: 2 mg/kg; 6: 1 mg/kg)",18 mL/min/kg
same,half-life,"Rat intravenous PK; male, Sprague Dawley (PROTAC 4), Han Wistar (PROTAC 6), whole blood, IV bolus (4: 2 mg/kg; 6: 1 mg/kg), read-out: Rat T½ (converted)",414 min
same,Vd,"Rat intravenous PK; male, Sprague Dawley (PROTAC 4), Han Wistar (PROTAC 6), whole blood, IV bolus (4: 2 mg/kg; 6: 1 mg/kg), read-out: Rat Vdss",11 L/kg
same,clearance in hepatocytes,"Hepatocyte CLint, rat",< 0.80 mL/min/g liver
same,rWB MDP pIC50 ± SEM (n),[1],7.7 ± 0.16 (4)
CN[C@@H](C)C(=O)N[C@H](C(=O)N1C[C@@H](NC(=O)c2cnc(N3CCN(CCCOc4cc5ncnc(Nc6n[nH]c(C)c6C)c5cc4S(=O)(=O)C(C)(C)C)CC3)cn2)C[C@H]1C(=O)Nc1c(F)cccc1F)C(C)(C)C [PROTAC 6],"change in XIAP protein levels, in words",XIAP,no change in protein levels
same,cytokine level (fig 6g),[2]; time 6 h,8.69 and 8.02 and 5.35 and 6.46 and 7.8
same,cytokine level (fig 6i),[2]; time 6 h,31.46 and 23.18 and 30.08 and 19.04 and 32.01
same,cytokine level (fig 6h),[2]; time 6 h,3.67 and 4.23 and 2.54 and 4.43 and 8.37
same,cytokine level (fig 6g),[2]; time 24 h,4.03 and 4.53 and 7.05 and 7.3
same,cytokine level (fig 6i),[2]; time 24 h,16.22 and 17.82 and 19.15 and 9.84 and 7.71
same,cytokine level (fig 6h),[2]; time 24 h,8.38 and 32.32 and 14.19
same,cytokine level (fig 6g),[2]; time 72 h,28.89 and 34.42 and 15.25 and 46.36 and 44.94
same,cytokine level (fig 6i),[2]; time 72 h,33.56 and 43.62 and 27.96 and 81.66 and 38.4
same,cytokine level (fig 6h),[2]; time 72 h,48.27 and 55.56 and 29.21 and 61.98 and 48.03
same,cytokine level (fig 6g),[2]; time 240 h,191.84 and 104.55 and 3.3 and 94.35
same,cytokine level (fig 6i),[2]; time 240 h,85.43 and 111.93 and 35.63 and 31.07
same,cytokine level (fig 6h),[2]; time 240 h,84.17 and 74.27 and 51.45 and 69.43
same,cytokine level (fig 6g),[2]; time 408 h,87.06 and 148.63 and 32.92 and 94.97 and 44.56
same,cytokine level (fig 6i),[2]; time 408 h,82.16 and 113.16 and 73.99 and 122.46 and 42.47
same,cytokine level (fig 6h),[2]; time 408 h,89.41 and 138.46 and 73.92 and 116.87 and 57.61
same,"release of TNFα and IL-8 in distal colon, in words","[2]; rat, 0.3 mg/kg SC, intravenous L18-MDP challenge",significantly inhibited for up to six days post-dose
